In patent publication US5057522A, “Anti-hypersensitive N2-tetrazole-β-glucuronide analog” (Merck & Co., Inc., priority 1990, dated 1991):

Target: T1, Angiotensin II (A II) receptor (Oryctolagus cuniculus, UniProt P34976)
T1 construct: membrane preparation derived from rabbit aortae; tissue Pel-Freeze Biologicals; host or cells: rabbit aorta membrane preparation
T1 sequence (P34976 1-359): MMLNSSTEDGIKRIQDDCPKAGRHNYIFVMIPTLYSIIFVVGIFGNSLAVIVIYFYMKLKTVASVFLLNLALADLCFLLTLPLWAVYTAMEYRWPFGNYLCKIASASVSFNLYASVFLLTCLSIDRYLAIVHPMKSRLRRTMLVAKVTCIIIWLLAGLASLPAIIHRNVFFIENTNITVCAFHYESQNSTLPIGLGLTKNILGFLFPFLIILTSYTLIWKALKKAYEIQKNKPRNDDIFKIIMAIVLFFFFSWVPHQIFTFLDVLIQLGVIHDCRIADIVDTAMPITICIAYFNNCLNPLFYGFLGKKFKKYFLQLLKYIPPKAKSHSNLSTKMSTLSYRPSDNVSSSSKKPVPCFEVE
Assay: Receptor binding assay using rabbit aortae membrane preparation (displacement of 125I-Sar1 Ile8-angiotensin II; "IC50" assay)
Method: This assay is also referred to herein as the "IC50 " assay.
RECEPTOR BINDING ASSAY USING RABBIT AORTAE MEMBRANE PREPARATION
Three frozen rabbit aortae (obtained from Pel-Freeze Biologicals) were suspended in 5 mM Tris-0.25M Sucrose, pH 7.4 buffer (50 ml) homogenized, and then centrifuged. The mixture was filtered through a cheesecloth and the supernatant was centrifuged for 30 minutes at 20,000 rpm at 4° C. The pellet thus obtained was resuspended in 30 ml of 50 mM Tris-5 mM MgCl2 buffer containing 0.2% Bovine Serum Albumin and 0.2 mg/ml Bacitration and the suspension was used for 100 assay tubes. Samples tested for screening were done in duplicates. To the membrane preparation (0.25 ml) there was added ^125 I-Sar^1 Ile^8 -angiotensin II [obtained from New England Nuclear] (10 ul; 20,000 cpm) with or without the test sample and the mixture was incubated at 37° C. for 90 minutes. The mixture was then diluted with ice-cold 50 mM Tris-0.9% NaCl, pH 7.4 (4 ml) and filtered through a glass fiber filter (GF/B Whatman 2.4" diameter). The filter was soaked in scintillation cocktail (10 ml) and counted for radioactivity using Packard 2660 Tricarb liquid scintillation counter. […]

CCc1nc2c(C)cc(C)nc2n1Cc1ccc(-c2ccccc2-c2nnn([C@@H]3O[C@H](C(=O)O)[C@@H](O)[C@H](O)[C@H]3O)n2)cc1 [compound (I)]
A II antagonist activity by the IC50 assay: exhibits A II antagonist activity | IC50 (37° C., 90 minutes, read-out: inhibitory concentration (IC50) giving 50% displacement of the total specifically bound 125I-Sar1 Ile8-angiotensin II): < 50 µM
